Consider 16 compounds from patent publication US12083101B2, “Biaryl derivatives as YAP/TAZ-TEAD protein-protein interaction inhibitors” (Novartis AG, priority 2020, dated 2024).

For experiment [1], the system named is MKN-45/Ubc-luc cells. In words: Proliferation assay (resazurin), MKN-45. It is filed as cell-based. The note with it: 72 hours incubation. On the technique in general: Alamar Blue is a resazurin reagent that responds to reducing activity.
Experiment [2] has as its system MKN-45/Ubc-luc cells. In words: Reporter gene specificity control (Ubc-luciferase), MKN-45. A general note: A reporter such as luciferase makes a cellular process visible.
Description: As a specificity control, MKN-45 cells were stably transduced with a Ubc-Luc reporter construct, in which constitutive expression of firefly luciferase is driven by the promoter of the ubiquitin C housekeeping gene.
Stock solutions of compounds were prepared at a concentration of 10 mM in DMSO and stored at 4° C. Where necessary to afford a full dose-response curve, the stock solutions were pre-diluted in DMSO to 1'000-fold the desired reduced start concentration. On the day after cell seeding, eleven 2-fold serial dilutions of each compound were dispensed directly into the cell assay plates using a HP 300D non-contact Digital Dispenser (TECAN, Mannedorf, Switzerland). The final concentration of DMSO was normalized to 0.1% in all wells.
The ability of compounds to inhibit YAP-dependent transcription was assessed in NCI-H2052 Tet-On shYAP_2371 pLenti6 MCAT_Luc cells, while specificity (lack of unspecific inhibition of luciferase expression of activity) was assessed in MKN-45/Ubc-luc cells. […] Following incubation for 24 hours at 37° C., compound-mediated modulation of reporter-gene activity was quantified 5 min after addition of 20 μl BrightGlo (Promega, Cat #E2620), by measuring luminescence intensity on a multi-mode plate-reader (TECAN, Männedorf, Switzerland, Integration time 100 ms). For data analysis, the assay background value determined in wells containing medium, but no cells, was subtracted from all data points. Dose-dependent compound effects were expressed as % of vehicle-treated control (luminescence signal produced by cells receiving DMSO only) and IC50s calculated using a four-parametric fit model.
The subject of experiment [3] is NCI-H2052 Tet-On shYAP_2371 pLenti6 MCAT_Luc cells. As to the kind of experiment: Proliferation assay (resazurin), NCI-H2052. It is filed as cell-based. As to conditions: 72 hours incubation. In a few lines:
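The NCI-H2052 line carries a Tet-inducible shRNA against the YAP1 3′UTR and an MCAT luciferase reporter. The day after seeding, it received eleven 2-fold compound dilutions at 0.1% DMSO, and viability was read by resazurin fluorescence.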

Experiment [4] deals with NCI-H2052 Tet-On shYAP_2371 pLenti6 MCAT_Luc cells (YAP-dependent transcription). As to the kind of experiment: YAP reporter gene activity assay (MCAT-luciferase), NCI-H2052. The note with it: 24 hours incubation, BrightGlo luminescence. Format: cell-based. In a few lines:
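NCI-H2052 cells carrying an MCAT-luciferase reporter and a tetracycline-inducible YAP 3′UTR shRNA were treated with eleven 2-fold compound dilutions (0.1% DMSO) for 24 h at 37 °C. BrightGlo luminescence was background-subtracted and expressed as % of DMSO control. IC50 came from a four-parameter fit; MKN-45/Ubc-luc cells served as the specificity counterscreen.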

For experiment [5], the target named is Avi-humanTEAD4 217-434 / Cy5 labeled humanYAP 60-100 (Homo sapiens (Human), UniProt Q15561). In words: TR-FRET YAP-TEAD4 in-vitro biochemical assay. Format: binding. The note with it: 1 nM Avi-humanTEAD4 217-434, 20 nM Cy5-humanYAP 60-100, 1 h room temperature. For orientation: TR-FRET usually uses a lanthanide donor and a delayed reading to cut background.
Where [6] appears, read: read-out: Reporter gene assay MKN-45 IC50, MKN-45/Ubc-luc cells (YAP deleted, specificity control), 24 hours incubation.
The mark [7] stands for this setting: Homo sapiens, MKN-45, 24 h, read-out: Reporter gene assay MKN-45 IC50 [μM], MKN-45/Ubc-luc cells (YAP deleted, specificity control), 24 hours incubation.

The structures appear in SMILES notation. Like-named read-outs stand apart in the source and are kept apart here.

Sequence of Avi-humanTEAD4 217-434 / Cy5 labeled humanYAP 60-100 (Q15561 217-434): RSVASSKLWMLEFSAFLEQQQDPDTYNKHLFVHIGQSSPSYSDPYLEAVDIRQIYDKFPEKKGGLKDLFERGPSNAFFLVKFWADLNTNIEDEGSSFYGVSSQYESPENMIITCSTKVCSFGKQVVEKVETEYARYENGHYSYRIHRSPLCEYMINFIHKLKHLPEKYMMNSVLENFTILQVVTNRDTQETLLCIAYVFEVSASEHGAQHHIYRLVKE

`COc1ccc(C(N)=O)c(-c2c(Cl)c(F)cc3c2C[C@](c2ccccc2)([C@@H]2CCCN2)O3)c1F` [Example 174, 2-((2S,4S)-5-Chloro-6-fluoro-2-phenyl-2-((S)-pyrrolidin-2-yl)-2,3-dihydrobenzofuran-4-yl)-3-fluoro-4-methoxybenzamide]: the values for the GI50 in experiment [1] and in experiment [3] were 11000 nM and 21 nM, respectively. For the same compound, the IC50 stood at 12 µM in experiment [2] (setting [6]), 37 nM in experiment [4] and 3 nM in experiment [5].
For `C[C@]1(O)CC[C@H](NC[C@@]2(c3ccccc3)Cc3c(cc(F)c(Cl)c3-c3c(C(N)=O)ccc(-n4ccnc4)c3F)O2)CC1` (atropisomer, axis not shown) [Example 69a, 2-((2S,4S)-5-chloro-6-fluoro-2-((((trans)-4-hydroxy-4-methylcyclohexyl)amino)methyl)-2-phenyl-2,3-dihydrobenzofuran-4-yl)-3-fluoro-4-(1H-imidazol-1-yl)benzamide], the GI50 (in general, the concentration that inhibits growth by half) in experiment [1] (Homo sapiens) is > 10000 nM; in experiment [3] (Homo sapiens, NCI-H2052, 72 h), 111 nM. For the same compound, the IC50 in experiment [2] (setting [7]) was > 10 µM; in experiment [4] (Homo sapiens, NCI-H2052, 24 h) it was 80 nM; in experiment [5], 5 nM.
On to `CNC[C@@]1(c2ccccc2)Cc2c(cc(F)c(Cl)c2-c2c(C(=O)NC)ccc(OC[C@H](C)O)c2F)O1` (atropisomer, axis not shown) [Example 52, 2-((2S,4S)-5-chloro-6-fluoro-2-((methylamino)methyl)-2-phenyl-2,3-dihydrobenzofuran-4-yl)-3-fluoro-4-((S)-2-hydroxypropoxy)-N-methylbenzamide], for which the GI50 in experiment [1] (Homo sapiens) is > 10000 nM; in experiment [3] (Homo sapiens, NCI-H2052, 72 h), 174 nM. For the same compound, the IC50 in experiment [2] (setting [7]) is > 10 µM; in experiment [4] (Homo sapiens, NCI-H2052, 24 h) it was 109 nM; in experiment [5], 11 nM.
Regarding `CNC[C@]1(c2ccccc2)Oc2cc(F)c(Cl)c(-c3c(C(=O)NC)ccc(OCCO)c3F)c2[C@@H]1C` (atropisomer, axis not shown) [Example 113, 2-((2S,3S,4S)-5-Chloro-6-fluoro-3-methyl-2-((methylamino)methyl)-2-phenyl-2,3-dihydrobenzofuran-4-yl)-3-fluoro-4-(2-hydroxyethoxy)-N-methylbenzamide], the GI50 was > 10000 nM in experiment [1] (Homo sapiens) and 29 nM in experiment [3] (Homo sapiens, NCI-H2052, 72 h). Also, the IC50 in experiment [2] (setting [7]) is > 10 µM; in experiment [4] (Homo sapiens, NCI-H2052, 24 h), 21 nM; in experiment [5], 2 nM.
For the compound `NC(=O)c1ccc(OC(F)F)c(F)c1-c1c(Cl)c(F)cc2c1C[C@@](CN[C@H]1CC[C@@H](O)[C@H](F)C1)(c1ccccc1)O2` (atropisomer, axis not shown) [Example 81b, 2-((2S,4S)-5-chloro-6-fluoro-2-((((1R,3S,4S)-3-fluoro-4-hydroxycyclohexyl)amino)methyl)-2-phenyl-2,3-dihydrobenzofuran-4-yl)-4-(difluoromethoxy)-3-fluorobenzamide], the GI50 in experiment [1] is > 10000 nM; in experiment [3] it was 571 nM. Besides, the IC50 in experiment [2] (setting [6]) was > 10 µM; in experiment [4], 316 nM; in experiment [5] it was 32 nM.
Turning to `COc1ccc(C(N)=O)c(-c2c(Cl)ccc3c2[C@H](O)[C@@](CN)(c2ccccc2)O3)c1F` (atropisomer, axis not shown) [Example 86, 2-((2S,3S,4S)-2-(Aminomethyl)-5-chloro-3-hydroxy-2-phenyl-2,3-dihydrobenzofuran-4-yl)-3-fluoro-4-methoxybenzamide], the GI50 is > 10000 nM in experiment [1] (Homo sapiens) and 129 nM in experiment [3] (Homo sapiens, NCI-H2052, 72 h). The IC50 in experiment [2] (setting [7]) was > 10 µM; in experiment [4] (Homo sapiens, NCI-H2052, 24 h) it was 119 nM; in experiment [5], 3 nM.
Consider `C[C@@H](O)CNC[C@@]1(c2ccccc2)Cc2c(cc(F)c(Cl)c2-c2c(C(N)=O)ccc(OC(F)F)c2F)O1` (atropisomer, axis not shown) [Example 74, 2-((2S,4S)-5-chloro-6-fluoro-2-((((R)-2-hydroxypropyl)amino)methyl)-2-phenyl-2,3-dihydrobenzofuran-4-yl)-4-(difluoromethoxy)-3-fluorobenzamide], for which the GI50 was > 10000 nM in experiment [1] (Homo sapiens) and 674 nM in experiment [3] (Homo sapiens, NCI-H2052, 72 h). The IC50 was > 10 µM in experiment [2] (setting [7]); 419 nM in experiment [4] (Homo sapiens, NCI-H2052, 24 h); 33 nM in experiment [5].
For the compound `COc1ccc(C(N)=O)c(-c2c(Cl)c(F)cc3c2C[C@](c2ccccc2)([C@@H]2CCCN2)N3)c1F` (atropisomer, axis not shown) [Example 171, 2-((2S,4S)-5-Chloro-6-fluoro-2-phenyl-2-((S)-pyrrolidin-2-yl)indolin-4-yl)-3-fluoro-4-methoxybenzamide], the GI50 came to 13000 nM in experiment [1] (Homo sapiens) and 73 nM in experiment [3] (Homo sapiens, NCI-H2052, 72 h). In addition, the IC50 in experiment [2] (setting [7]) amounted to 15.5 µM; in experiment [4] (Homo sapiens, NCI-H2052, 24 h), 116 nM; in experiment [5] it was 2 nM.
For `COc1ccc(C(N)=O)c(-c2c(Cl)ccc3c2C[C@@](CN)(c2ccccc2)O3)c1F` (single isomer, unassigned) [Example 5b], the GI50 in experiment [1] and in experiment [3] was > 10000 nM each time. Also, the IC50 is > 10 µM in experiment [2] (setting [6]), > 10000 nM in experiment [4] and 23300 nM in experiment [5].
With `CNC[C@]1(c2cccc(O)n2)Oc2cc(F)c(Cl)c(-c3c(C(N)=O)ccc(OC)c3F)c2[C@@H]1C` (atropisomer, axis not shown) [Example 125, 2-((2R,3S,4S)-5-Chloro-6-fluoro-2-(6-hydroxypyridin-2-yl)-3-methyl-2-((methylamino)methyl)-2,3-dihydrobenzofuran-4-yl)-3-fluoro-4-methoxybenzamide], the GI50 is > 7500 nM in experiment [1] (Homo sapiens) and 1180 nM in experiment [3] (Homo sapiens, NCI-H2052, 72 h). The IC50 in experiment [2] (setting [7]) is > 10 µM; in experiment [4] (Homo sapiens, NCI-H2052, 24 h) it was 671 nM; in experiment [5] it was 11 nM.
Take `CC(=O)NC1CCC(NC[C@@]2(c3ccccc3)Cc3c(cc(F)c(Cl)c3-c3c(C(N)=O)ccc(OC(F)F)c3F)O2)CC1` (single isomer, unassigned) [Example 56b]: the GI50 in experiment [1] was > 10000 nM; in experiment [3], 372 nM. Besides, the IC50 worked out at 7.6 µM in experiment [2] (setting [6]), 194 nM in experiment [4] and 11 nM in experiment [5].
`C[C@H](O)COc1ccc(C(N)=O)c(-c2c(Cl)ccc3c2C[C@@](CN)(c2ccccc2)O3)c1F` (atropisomer, axis not shown) [Example 13, 2-((2S,4S)-2-(aminomethyl)-5-chloro-2-phenyl-2,3-dihydrobenzofuran-4-yl)-3-fluoro-4-((S)-2-hydroxypropoxy)benzamide]: the 50% growth inhibitory concentration (GI50) in experiment [1] (Homo sapiens) is > 10000 nM; in experiment [3] (Homo sapiens, NCI-H2052, 72 h), 166 nM. The IC50 in experiment [2] (setting [7]) was > 10 µM; in experiment [4] (Homo sapiens, NCI-H2052, 24 h), 102 nM; in experiment [5], 6 nM.
As to `NC[C@@]1(c2ccccc2)Cc2c(ccc(Cl)c2-c2c(C(N)=O)ccc(OCCO)c2F)O1` (atropisomer, axis not shown) [Example 10, 2-((2S,4S)-2-(aminomethyl)-5-chloro-2-phenyl-2,3-dihydrobenzofuran-4-yl)-3-fluoro-4-(2-hydroxyethoxy)benzamide], the GI50 in experiment [1] (Homo sapiens) is > 10000 nM; in experiment [3] (Homo sapiens, NCI-H2052, 72 h) it was 99 nM. Further, the IC50 in experiment [2] (setting [7]) is > 10 µM; in experiment [4] (Homo sapiens, NCI-H2052, 24 h), 64 nM; in experiment [5], 3 nM.
`COCCOc1ccc(C(N)=O)c(-c2c(Cl)ccc3c2[C@H](O)[C@@](CN)(c2ccccc2)O3)c1F` (atropisomer, axis not shown) [Example 88, 2-((2S,3S,4S)-2-(aminomethyl)-5-chloro-3-hydroxy-2-phenyl-2,3-dihydrobenzofuran-4-yl)-3-fluoro-4-(2-methoxyethoxy)benzamide]: the GI50 was > 10000 nM in experiment [1] (Homo sapiens) and 242 nM in experiment [3] (Homo sapiens, NCI-H2052, 72 h). The IC50 was > 10 µM in experiment [2] (setting [7]); 91 nM in experiment [4] (Homo sapiens, NCI-H2052, 24 h); 7 nM in experiment [5].
As to `COc1ccc(C(N)=O)c(-c2c(Cl)ccc3c2C[C@@](CN)(c2cscn2)O3)c1F` (atropisomer, axis not shown) [Example 29, 2-((2R,4S)-2-(Aminomethyl)-5-chloro-2-(thiazol-4-yl)-2,3-dihydrobenzofuran-4-yl)-3-fluoro-4-methoxybenzamide], the GI50 in experiment [1] (Homo sapiens) is > 10000 nM; in experiment [3] (Homo sapiens, NCI-H2052, 72 h), 1850 nM. Moreover, the IC50 in experiment [2] (setting [7]) was > 10 µM; in experiment [4] (Homo sapiens, NCI-H2052, 24 h), 2000 nM; in experiment [5] it was 10 nM.
For the compound `CNC[C@]1(c2ccccc2)Oc2cc(F)c(Cl)c(-c3c(C(N)=O)ccc(OC)c3F)c2[C@@H]1COC` (atropisomer, axis not shown) [Example 146, 2-((2S,3R,4S)-5-Chloro-6-fluoro-3-(methoxymethyl)-2-((methylamino)methyl)-2-phenyl-2,3-dihydrobenzofuran-4-yl)-3-fluoro-4-methoxybenzamide], the GI50 in experiment [1] (Homo sapiens) was > 10000 nM; in experiment [3] (Homo sapiens, NCI-H2052, 72 h), 23 nM. Also, the IC50 in experiment [2] (setting [7]) is > 10 µM; in experiment [4] (Homo sapiens, NCI-H2052, 24 h) it was 25 nM; in experiment [5], 3 nM.
